Each structure is given as a SMILES string.

By EC50 is commonly meant the midpoint of the concentration-response curve.

One experiment has as its target T1, mTRPA1 (Mus musculus, UniProt Q8BLA8).
T1 construct: gene Trpa1; stably overexpressed in CHO cells
The experiment in a line: Fluo-4 AM calcium influx, flow cytometry, CHO cells. Type of experiment: cell-based. (In general: Flow cytometry measures light scatter and fluorescence of single cells or particles in a stream.)

For a further experiment, the target named is T2, hTRPA1 (Homo sapiens, UniProt O75762).
T2 construct: gene TRPA1; stably overexpressed in CHO cells
Described as above. Type of experiment: cell-based.

T2 sequence (O75762 whole entry): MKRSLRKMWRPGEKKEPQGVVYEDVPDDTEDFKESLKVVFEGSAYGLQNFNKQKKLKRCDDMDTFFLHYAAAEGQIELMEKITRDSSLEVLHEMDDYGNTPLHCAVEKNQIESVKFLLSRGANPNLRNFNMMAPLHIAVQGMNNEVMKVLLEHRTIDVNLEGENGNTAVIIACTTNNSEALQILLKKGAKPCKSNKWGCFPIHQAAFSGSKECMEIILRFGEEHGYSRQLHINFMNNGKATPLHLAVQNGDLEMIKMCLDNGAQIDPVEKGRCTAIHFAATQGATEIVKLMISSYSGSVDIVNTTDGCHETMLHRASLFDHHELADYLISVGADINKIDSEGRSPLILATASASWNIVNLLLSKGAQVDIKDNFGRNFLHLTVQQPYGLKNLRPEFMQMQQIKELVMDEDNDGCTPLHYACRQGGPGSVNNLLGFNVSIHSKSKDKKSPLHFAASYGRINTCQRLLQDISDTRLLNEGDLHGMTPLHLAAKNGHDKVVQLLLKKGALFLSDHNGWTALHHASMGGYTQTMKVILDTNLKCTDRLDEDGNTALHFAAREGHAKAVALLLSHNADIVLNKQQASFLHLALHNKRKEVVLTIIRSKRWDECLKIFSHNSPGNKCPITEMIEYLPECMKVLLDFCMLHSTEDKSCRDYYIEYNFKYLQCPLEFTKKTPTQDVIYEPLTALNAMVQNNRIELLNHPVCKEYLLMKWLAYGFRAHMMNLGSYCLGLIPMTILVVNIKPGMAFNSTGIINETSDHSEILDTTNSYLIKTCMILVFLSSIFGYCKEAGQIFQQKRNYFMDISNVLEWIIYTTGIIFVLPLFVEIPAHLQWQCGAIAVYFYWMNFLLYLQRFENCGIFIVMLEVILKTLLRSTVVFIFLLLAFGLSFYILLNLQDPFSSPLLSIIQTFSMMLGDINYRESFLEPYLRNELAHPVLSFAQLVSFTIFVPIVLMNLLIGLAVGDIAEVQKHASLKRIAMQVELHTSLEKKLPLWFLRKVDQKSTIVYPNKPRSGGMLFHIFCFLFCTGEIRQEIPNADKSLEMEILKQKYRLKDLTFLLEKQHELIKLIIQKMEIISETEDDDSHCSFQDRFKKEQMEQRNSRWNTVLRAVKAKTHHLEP
T1 sequence (Q8BLA8 whole entry): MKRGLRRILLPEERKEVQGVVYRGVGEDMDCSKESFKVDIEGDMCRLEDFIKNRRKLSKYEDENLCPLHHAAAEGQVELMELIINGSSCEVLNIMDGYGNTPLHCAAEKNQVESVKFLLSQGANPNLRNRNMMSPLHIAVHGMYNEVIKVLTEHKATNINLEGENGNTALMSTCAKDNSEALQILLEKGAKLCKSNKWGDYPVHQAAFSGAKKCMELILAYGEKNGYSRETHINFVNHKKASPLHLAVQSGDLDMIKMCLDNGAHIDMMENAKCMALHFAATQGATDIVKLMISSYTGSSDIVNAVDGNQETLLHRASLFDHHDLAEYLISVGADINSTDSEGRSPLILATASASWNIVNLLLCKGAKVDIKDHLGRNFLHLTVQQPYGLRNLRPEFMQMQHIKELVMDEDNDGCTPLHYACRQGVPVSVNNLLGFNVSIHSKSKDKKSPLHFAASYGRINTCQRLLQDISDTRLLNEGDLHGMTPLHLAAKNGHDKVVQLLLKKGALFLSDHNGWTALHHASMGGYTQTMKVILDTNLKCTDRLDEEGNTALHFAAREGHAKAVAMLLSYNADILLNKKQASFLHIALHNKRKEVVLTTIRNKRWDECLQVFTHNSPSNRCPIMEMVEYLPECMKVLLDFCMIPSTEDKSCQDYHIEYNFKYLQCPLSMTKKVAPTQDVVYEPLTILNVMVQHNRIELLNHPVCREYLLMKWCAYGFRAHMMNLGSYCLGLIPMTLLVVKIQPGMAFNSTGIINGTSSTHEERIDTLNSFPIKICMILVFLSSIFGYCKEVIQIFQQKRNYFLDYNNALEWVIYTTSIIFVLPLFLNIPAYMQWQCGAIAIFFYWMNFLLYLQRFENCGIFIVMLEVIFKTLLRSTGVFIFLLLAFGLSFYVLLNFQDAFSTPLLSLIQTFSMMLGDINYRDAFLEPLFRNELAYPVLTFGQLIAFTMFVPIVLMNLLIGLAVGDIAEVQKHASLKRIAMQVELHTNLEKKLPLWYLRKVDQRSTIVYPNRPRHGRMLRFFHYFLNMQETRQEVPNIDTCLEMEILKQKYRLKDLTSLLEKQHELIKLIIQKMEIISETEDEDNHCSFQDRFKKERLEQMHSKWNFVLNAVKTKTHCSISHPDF

With `CC1=NCCS1` [2-MT, 2-methyl-2-thiazoline], the EC50 turned out to be 4.42 mM at mTRPA1 and 5.01 mM at hTRPA1.

The values are drawn from paper PMC8703823, “The Role of TRPA1 Channels in the Central Processing of Odours Contributing to the Behavioural Responses of Mice” (Pharmaceuticals, 2021).
